Measurements from ChEMBL document CHEMBL3885861, “Open TG-GATES”.

Species: Rattus norvegicus
Assay: Open TG-GATES - Regimen: Single
Type: toxicity, organism-based, Sprague-Dawley
Design: regimen Single, gender Male, age 6 weeks
Details: in vivo, po, 120 mg/kg, route gavage, dose level Middle; for APTT / Bas / Eos / Fbg / Hb / Ht / Lym / MCH / MCHC / MCV / Mono / Neu / PT / Plat / RBC / Ret / WBC: tissue Blood; for KIDNEY_L / KIDNEY_R / KIDNEY_TOTAL: tissue Kidney; for LIVER: tissue Liver; for A/G / ALP / ALT / AST / BUN / CRE / Ca / Cl / DBIL / GLC / IP / K / LDH / Na / PL / RALB / TBIL / TC / TG / TP / gamma-GTP: tissue Plasma

Cc1cccc(C)c1OCC(C)N (configuration not stated) [MEXILETINE]
TERMINAL_BW (3 h): 218.1 g | APTT (3 h): 21.8 s | Bas (3 h): 0% | Eos (3 h): 0.4% | Fbg (3 h): 310.2 mg/dL | Hb (3 h): 13.1 g/dL | Ht (3 h): 40.6% | Lym (3 h): 83.2% | MCH (3 h): 20.1 pg | MCHC (3 h): 32.2% | MCV (3 h): 62.6 fL | Mono (3 h): 2% | Neu (3 h): 13.6% | PT (3 h): 15.9 s | Plat (3 h): 113.4 x10_4/uL | RBC (3 h): 648.8 x10_4/ul | Ret (3 h): 7.3% | WBC (3 h): 96 x10_2/uL | KIDNEY_L (3 h): 1 g | KIDNEY_R (3 h): 1 g | KIDNEY_TOTAL (3 h): 1.9 g | LIVER (3 h): 10.1 g | A/G (3 h): 1.3 | ALP (3 h): 1543.6 IU/L | ALT (3 h): 54.4 IU/L | AST (3 h): 78.4 IU/L | BUN (3 h): 12.8 mg/dL | CRE (3 h): 0.2 mg/dL | Ca (3 h): 10.5 mg/dL | Cl (3 h): 106.4 meq/L | DBIL (3 h): 0 mg/dL | GLC (3 h): 182.6 mg/dL | IP (3 h): 9.4 mg/dL | K (3 h): 4.4 meq/L | LDH (3 h): 175.2 IU/L | Na (3 h): 141.6 meq/L | PL (3 h): 135 mg/dL | RALB (3 h): 3.1 g/dL | TBIL (3 h): 0.018 mg/dL | TC (3 h): 77.2 mg/dL | TG (3 h): 61.8 mg/dL | TP (3 h): 5.5 g/dL | gamma-GTP (3 h): 1.2 IU/L | TERMINAL_BW (6 h): 209 g | APTT (6 h): 21.2 s | Bas (6 h): 0% | Eos (6 h): 0.8% | Fbg (6 h): 318.6 mg/dL | Hb (6 h): 13.2 g/dL | Ht (6 h): 40.5% | Lym (6 h): 77.4% | MCH (6 h): 20.4 pg | MCHC (6 h): 32.6% | MCV (6 h): 62.6 fL | Mono (6 h): 2.4% | Neu (6 h): 19% | PT (6 h): 16.1 s | Plat (6 h): 120.4 x10_4/uL | RBC (6 h): 647 x10_4/ul | Ret (6 h): 6.8% | WBC (6 h): 69.3 x10_2/uL | KIDNEY_L (6 h): 0.9 g | KIDNEY_R (6 h): 0.9 g | KIDNEY_TOTAL (6 h): 1.9 g | LIVER (6 h): 9 g | A/G (6 h): 1.2 | ALP (6 h): 1633.4 IU/L | ALT (6 h): 43.8 IU/L | AST (6 h): 73.4 IU/L | BUN (6 h): 9.8 mg/dL | CRE (6 h): 0.2 mg/dL | Ca (6 h): 10.6 mg/dL | Cl (6 h): 107.4 meq/L | DBIL (6 h): 0 mg/dL | GLC (6 h): 184.6 mg/dL | IP (6 h): 8.6 mg/dL | K (6 h): 4.1 meq/L | LDH (6 h): 179.2 IU/L | Na (6 h): 142 meq/L | PL (6 h): 124.6 mg/dL | RALB (6 h): 3.1 g/dL | TBIL (6 h): 0.03 mg/dL | TC (6 h): 68.6 mg/dL | TG (6 h): 48.6 mg/dL | TP (6 h): 5.7 g/dL | gamma-GTP (6 h): 1.2 IU/L | TERMINAL_BW (9 h): 219.2 g | APTT (9 h): 22.9 s | Bas (9 h): 0% | Eos (9 h): 1% | Fbg (9 h): 318.6 mg/dL | Hb (9 h): 12.6 g/dL | Ht (9 h): 39% | Lym (9 h): 78.6% | MCH (9 h): 20.2 pg | MCHC (9 h): 32.3% | MCV (9 h): 62.6 fL | Mono (9 h): 2.4% | Neu (9 h): 17.2% | PT (9 h): 16.3 s | Plat (9 h): 120 x10_4/uL | RBC (9 h): 624 x10_4/ul | Ret (9 h): 7.2% | WBC (9 h): 97.2 x10_2/uL | KIDNEY_L (9 h): 1 g | KIDNEY_R (9 h): 1 g | KIDNEY_TOTAL (9 h): 2 g | LIVER (9 h): 9.5 g | A/G (9 h): 1.2 | ALP (9 h): 1531 IU/L | ALT (9 h): 44.6 IU/L | AST (9 h): 71.8 IU/L | BUN (9 h): 10.6 mg/dL | CRE (9 h): 0.2 mg/dL | Ca (9 h): 10.6 mg/dL | Cl (9 h): 104.6 meq/L | DBIL (9 h): 0 mg/dL | GLC (9 h): 188.4 mg/dL | IP (9 h): 9 mg/dL | K (9 h): 4.3 meq/L | LDH (9 h): 143.8 IU/L | Na (9 h): 140.2 meq/L | PL (9 h): 130.4 mg/dL | RALB (9 h): 3 g/dL | TBIL (9 h): 0.02 mg/dL | TC (9 h): 74 mg/dL | TG (9 h): 66.8 mg/dL | TP (9 h): 5.4 g/dL | gamma-GTP (9 h): 1.2 IU/L | TERMINAL_BW (24 h): 231.4 g | APTT (24 h): 19.9 s | Bas (24 h): 0% | Eos (24 h): 0.8% | Fbg (24 h): 293.8 mg/dL | Hb (24 h): 12.8 g/dL | Ht (24 h): 39.5% | Lym (24 h): 81% | MCH (24 h): 20.6 pg | MCHC (24 h): 32.3% | MCV (24 h): 63.8 fL | Mono (24 h): 2.4% | Neu (24 h): 15.2% | PT (24 h): 15.9 s | Plat (24 h): 117.4 x10_4/uL | RBC (24 h): 619.8 x10_4/ul | Ret (24 h): 7.6% | WBC (24 h): 86.1 x10_2/uL | KIDNEY_L (24 h): 1 g | KIDNEY_R (24 h): 1 g | KIDNEY_TOTAL (24 h): 2 g | LIVER (24 h): 10.8 g | A/G (24 h): 1.3 | ALP (24 h): 1779.4 IU/L | ALT (24 h): 50 IU/L | AST (24 h): 75 IU/L | BUN (24 h): 17.2 mg/dL | CRE (24 h): 0.2 mg/dL | Ca (24 h): 10.7 mg/dL | Cl (24 h): 106.2 meq/L | DBIL (24 h): 0 mg/dL | GLC (24 h): 188.6 mg/dL | IP (24 h): 7.6 mg/dL | K (24 h): 4.2 meq/L | LDH (24 h): 205 IU/L | Na (24 h): 141.4 meq/L | PL (24 h): 148.4 mg/dL | RALB (24 h): 3.1 g/dL | TBIL (24 h): 0.008 mg/dL | TC (24 h): 74.2 mg/dL | TG (24 h): 150.8 mg/dL | TP (24 h): 5.6 g/dL | gamma-GTP (24 h): 1.6 IU/L
